# Experimental data reported in patent publication US20240307345A1, “R-MDMA and S-MDMA TO ASSIST PSYCHOTHERAPY” (Universitatsspital Basel, priority 2022, published 2024).
# “Also recorded” adds a separate entry of the source.
# Legend:
# healthy subjects [1] = test: Clinical cross-over study, overall comparison of the substances; type: in vivo, human; settings: conclusion over the doses tested
# Experimental: (§1) Study design: The present study compares the acute subjective, physiological and endocrine effects of S-MDMA (125 mg), R-MDMA (125 and 250 mg), MDMA (125 mg) using a placebo-controlled double-blind 5-period cross-over design in 24 healthy subjects. Conditions are 1.) R-MDMA 125 mg, 2). R-MDMA 250 mg, 3) S-MDMA 125 mg, 4) MDMA 125 mg, 5) placebo. Treatment order is counterbalanced. Washout periods between substance administrations are at least 10 days. Study days include a 10-hour study session with a subsequent single measurement (short visit) the next morning (24 hours after drug administration).
# mice [2] = settings: cited from earlier work
# healthy subjects [3] = test: Effects on mood on the Adjective Mood Rating Scale (AMRS); type: in vivo, human; settings: 125 mg
# Experimental: as §1
# (§2) Psychometric assessments: Visual Analog Scale (VAS): VASs is repeatedly used to assess subjective alterations in consciousness over time. Single scales are presented as 100 mm horizontal lines marked with “not at all” on the left and “extremely” on the right. The following VAS items are used: “any drug effect”, “good drug effect”, “bad drug effect”, “stimulated”, “liking”, “happy”, “content”, “talkative”, “open”, “trust”, “feeling close to others”, “anxiety”, “alteration of vision”, “alterations of hearing”, “sounds seem to influence what I see”, “alteration of sense of time”, “the boundaries between myself and my surroundings seem to blur”, “want to be with other people”, and “want to be alone”. Scales are administered before and repeatedly after substance administration and take approximately 2 minutes to fill out. The maximal ratings (Emax, 0-100) and areas under the effect-time curve (AUEC) are defined for each VAS and Emax and AUEC values compared between treatments using analysis of variance. 5-Dimensions of Altered States of Consciousness (5D-ASC): The 5 Dimensions of Altered States of Consciousness (5D-ASC) Scale is a questionnaire containing visual analog scales for 94 items (Studerus et al., 2010). The instrument contains five scales assessing mood, anxiety, derealization, depersonalization, changes in perception, auditory alterations, and reduced vigilance. The scale is well-validated (Studerus et al., 2010) and used internationally to evaluate effects of many other psychoactive substances. The overall psychedelic experience is reflected by the total […] score. Each item of the scale is scored on a 0-100 mm VAS. The attribution of the individual items to the subscales of the 5D-ASC is analyzed according to (Studerus et al., 2010). The 5D-ASC scale is administered once at the end of the session and subjects are instructed to retrospectively rate peak alterations that have been experienced during the study session. Adiective Mood Rating Scale (AMRS): The Adjective Mood Rating Scale (AMRS or EWL60S) is a 60-item Likert scale that allows repeated assessment of mood in 6 dimensions: Activation, inactivation, well-being, anxiety/depressed mood, extra- and introversion, and emotional excitability. The German EWL60S version is used. The AMRS consists of subscales measuring “activation,” “positive mood,” “extraversion,” “introversion,” “inactivation,” and “emotional excitability. The scale has previously been used to evaluate effects of many other psychoactive substances. Emax and AUEC scores will be defined for each subscale and compared between treatments using analysis of variance. The AMRS is administered repeatedly throughout the study session and once 3 days after each session. States of Consciousness Questionnaire (SCQ): In the SCQ, 100-items are rated on a six-point scale. Forty-three items embedded into this questionnaire comprise the Mystical Experience Questionnaire (MEQ) (MacLean et al., 2011) which is sensitive to the effects of psychedelic substances such as LSD. […]
# healthy subjects [4] = test: Autonomic effects (blood pressure, heart rate, body temperature); type: in vivo, human; settings: 125 mg
# Experimental: as §1
# Autonomic measures: Blood pressure, heart rate, and body temperature are recorded at baseline and repeatedly throughout the session. Blood pressure (systolic and diastolic) and heart rate are measured with an automatic oscillometric device. Body temperature is measured with an ear thermometer. Emax is determined for each of the measures and for each study session. These Emax values are then compared between drug conditions using analysis of variance.
# [5] = 75 mg; earlier study; cited from earlier work
# mice [6] = settings: compared with R-MDMA; cited from earlier work
# rhesus monkeys = settings: cited from earlier work
# healthy subjects [7] = test: Acute subjective effects on the Visual Analog Scale (VAS); type: in vivo, human; settings: 125 mg; compared with both R-MDMA doses and placebo
# Experimental: as §1
# Study procedures: The study takes place at the University Hospital Basel. Each of the test sessions last from 8:00 until 18:00 with a short visit the next morning (24 hours after application). An indwelling intravenous catheter is inserted into a subcutaneous vein of the forearm and baseline psychometric measures are obtained. Administration of the substance is at 9:00. Outcome measures (see below) are repeatedly assessed during the study session. Subjects are under continuous medical supervision until any alterations of consciousness have completely subsided and they leave the research facility.
# Psychometric assessments: Visual Analog Scale (VAS): VASs is repeatedly used to assess subjective alterations in consciousness over time. Single scales are presented as 100 mm horizontal lines marked with “not at all” on the left and “extremely” on the right. The following VAS items are used: “any drug effect”, “good drug effect”, “bad drug effect”, “stimulated”, “liking”, “happy”, “content”, “talkative”, “open”, “trust”, “feeling close to others”, “anxiety”, “alteration of vision”, “alterations of hearing”, “sounds seem to influence what I see”, “alteration of sense of time”, “the boundaries between myself and my surroundings seem to blur”, “want to be with other people”, and “want to be alone”. Scales are administered before and repeatedly after substance administration and take approximately 2 minutes to fill out. The maximal ratings (Emax, 0-100) and areas under the effect-time curve (AUEC) are defined for each VAS and Emax and AUEC values compared between treatments using analysis of variance. 5-Dimensions of Altered States of Consciousness (5D-ASC): The 5 Dimensions of Altered States of Consciousness (5D-ASC) Scale is a questionnaire containing visual analog scales for 94 items (Studerus et al., 2010). The instrument contains five scales assessing mood, anxiety, derealization, depersonalization, changes in perception, auditory alterations, and reduced vigilance. The scale is well-validated (Studerus et al., 2010) and used internationally to evaluate effects of many other psychoactive substances. The overall psychedelic experience is reflected by the total […] score. Each item of the scale is scored on a 0-100 mm VAS. The attribution of the individual items to the subscales of the 5D-ASC is analyzed according to (Studerus et al., 2010). The 5D-ASC scale is administered once at the end of the session and subjects are instructed to retrospectively rate peak alterations that have been experienced during the study session. Adiective Mood Rating Scale (AMRS): The Adjective Mood Rating Scale (AMRS or EWL60S) is a 60-item Likert scale that allows repeated assessment of mood in 6 dimensions: Activation, inactivation, well-being, anxiety/depressed mood, extra- and introversion, and emotional excitability. The German EWL60S version is used. The AMRS consists of subscales measuring “activation,” “positive mood,” “extraversion,” “introversion,” “inactivation,” and “emotional excitability. The scale has previously been used to evaluate effects of many other psychoactive substances. Emax and AUEC scores will be defined for each subscale and compared between treatments using analysis of variance. The AMRS is administered repeatedly throughout the study session and once 3 days after each session. […]
# healthy subjects [8] = test: Connectedness subscale of the PES questionnaire; type: in vivo, human; settings: 125 mg
# healthy subjects [9] = test: Alteration of mind and mystical-type effects on 5D-ASC and MEQ questionnaires; type: in vivo, human; settings: 125 mg
# Experimental: as §1, §2
# animals = settings: various animal studies; cited from earlier work
# [10] = human; after administration of racemic MDMA; compared to R-MDA; cited from earlier work
SMILES,acute subjective effects and adverse effects (healthy subjects [1]),lethal doses (mice [2]),effects on the AMRS (healthy subjects [3]),body temperature (healthy subjects [4]),heart rate (healthy subjects [4]; versus placebo),body temperature [5],onset of interoceptive effects (mice [6]),reinforcing properties (rhesus monkeys),"VAS “talkative,” “open,” “trust,” and “I feel close to others” (healthy subjects [7])","ratings of connectedness, difference between conditions (healthy subjects [8])",acute mystical-type experiences on the 5D-ASC scale (healthy subjects [9]; 24 subjects),psychedelic effects on the 5D-ASC and the MEQ questionnaires (healthy subjects [9]; compared with placebo (and 125 mg R-MDMA)),social interaction (animals),plasma levels of the active metabolite [10],time of peak plasma level of the active metabolite [10]
"CNC(C)Cc1ccc2c(c1)OCO2 (racemic) [(±)-MDMA, ±3,4-methylenedioxymethamphetamine, reference compound]",overall comparable,similar,comparable effects,increased similarly; also recorded: increased body temperature only moderately,increase heart rate comparably and more than with placebo,did not significantly increase body temperature,faster,moderate reinforcing properties,higher values,no difference,comparable effects with no significant differences,comparable and overall greater psychedelic effects,Increased social interaction,,
C[C@H](N)Cc1ccc2c(c1)OCO2 [S-MDA],,,,,,,,,,,,,,higher,peaked earlier
